≈ marks a conversion by molar mass, not a printed value.

A short description of data set [1]: Equilibrium aqueous solubility of PP10 and polymeric-PP10 binary systems. It counts as physicochemical. Particulars: distilled water, 25 °C. Here is the method: The equilibrium solubility of pure PP10 and the three polymeric drug binary systems with PVP-K90, Eudragit L100-55, or HP-β-CD were studied to investigate the effect of the complexation on the aqueous solubility of PP10. An excess quantity of the pure drug or the prepared binary systems was added to 5 mL of distilled water in a screw-capped vial and transferred to a thermostatically controlled shaking water bath (Model 1031; GFL Corporation, Burgwedel, Germany) at 25 ± 0.5 °C for 72 h. […] Drug stock solution was prepared in methanol and different standard drug solutions in the range of 2–10 µg/mL were prepared. The absorbance of the prepared standard solutions was measured, resulting in a correlation coefficient (R^2) of 0.9986.

Data set [2] can be described thus: Stability of PP10 at different pHs (HPLC, MASS scan). Type of data set: physicochemical. Here is the method: The parent PP10 could hydrolyze into the corresponding PP10-acid either chemically (acid/base hydrolysis) or by the action of esterase in the blood, which could affect the PK and/or PD properties. This potential hydrolysis behavior was studied by investigating the stability of the parent methylester compound in buffer at different pHs, and in blood. To examine potential chemical degradation, a solution of PP10 (2 mg/mL) was prepared in methanol. Known volume (1 mL) of this methanol solution was diluted with a definite volume (20 mL) of buffer at pH 1.2, 5.5, or 7.4, corresponding to the gastric pH, the pH of the proximal small intestine, and the pH of the terminal ileum or physiological body fluids, respectively. Methanolic drug solution of the same concentration was also prepared as a reference. The different pH mixtures were incubated in a water bath at 37 °C overnight. The high-performance liquid chromatography (HPLC) chromatogram of the parent compound (methanolic drug solution) was compared with the corresponding drug buffer samples. The molecular weight of degraded product(s) was investigated using MASS scan. Details of the apparatus and conditions are described below.

A short description of data set [3]: Pharmacokinetics study in rats, whole blood PP10-acid. It counts as in vivo, Sprague-Dawley rats. As to conditions: rat, all analyses. Here is the method: A single-dose one-period parallel design was utilized to investigate the pharmacokinetics of pure PP10, the polymeric-PP10 binary systems with PVP-K90 and HP-β-CD, and the PP10-TPGS aqueous micelle solution formulation. The study was conducted according to the guidelines of Good Clinical Practice (GCP), the International Conference on Harmonization (ICH), and the European Medicines Agency (EMA). The protocol for the animal study received prior approval from the Research Ethics Committee, Faculty of Pharmacy, King Abdulaziz University, Saudi Arabia (reference no. PH-1442-68) in 04/03/2021.
Male Sprague-Dawley rats (300–350 g) were used. The animals were maintained on a 12 h light/dark cycle (lights-on at 7 a.m.) with free access to food and water in a temperature-controlled room. After 7 days of acclimatization, animals were classified into four groups (n = 6). Group I was administered oral drug tablets containing pure drug (positive control). Group II was given oral drug tablets containing PP10-PVP K90 binary system. […]
The concentration of the parent PP10 and PP10-acid metabolite in the whole blood samples were determined using a gradient elution HPLC chromatographic condition using a Waters Symmetry Shield C18 (Waters, MA, USA), 5 µm 3.9 × 150 mm column, and a Waters 2998 PDA detector (Waters, MA, USA) with detection wavelength adjusted to 274 nm. […]

In data set [4] the test system is sickle red blood cell (SS blood). As to the kind of experiment: In vitro antisickling study with sickle whole blood. Type of data set: cell-based, human. As to conditions: for antisickling effect (RBC sickling inhibition): SS blood HCT 20%, 0.5, 1 and 2 mM, hypoxia 2.5% O2. As to the method:
(§1) The parent PP10, its acid metabolite PP10-acid, and the sodium salt PP10-NaSalt were tested using homozygous sickle cell (SS) blood for their pharmacologic activities. Leftover blood samples from individuals with SS were obtained (based on an approved IRB protocol at the Children’s Hospital of Philadelphia, with informed consent) and used for in vitro antisickling, Hb modification, and oxygen equilibrium studies following methods previously published by our group. For the antisickling study, SS blood samples (hematocrit 20%) were incubated under air in the absence or presence of PP10, PP10-acid, or PP10-NaSalt (0.5 mM, 1 mM, and 2 mM) at 37 °C for 1 h, followed by incubation of the mixture under hypoxic conditions (2.5% O2/97.5% N2) at 37 °C for 2 h. Aliquots were fixed with 2% glutaraldehyde solution in sodium cacodylate buffer, pH 7.4, without exposure to air, and then subjected to microscopic morphological analysis of bright field images (at 40× magnification) of single layer cells on an Olympus BX40 microscope fitted with an Infinity 2 camera and coupled with Image Capture cellSens software (Olympus, Tokyo, Japan).

For a further data set, the target named is T1, HbS (Homo sapiens, UniProt P68871+P69905, E7V).
T1 construct: tested using homozygous sickle cell (SS) blood for their pharmacologic activities; from tissue; host or cells: Whole blood (red blood cells) from individuals with homozygous sickle cell disease
As to the kind of experiment: Hb modification (Hb adduct formation), cation-exchange HPLC. Particulars: SS blood, 0.5, 1 and 2 mM. Type of data set: cell-based. Here is the method: as §1, with “Aliquots were fixed with 2% glutaraldehyde solution in sodium cacodylate buffer, pH 7.4, without exposure to air, and then subjected to microscopic morphological analysis of bright field images (at 40× magnification) of single layer cells on an Olympus BX40 microscope fitted with an Infinity 2 camera and coupled with Image Capture cellSens software (Olympus, Tokyo, Japan).” left out
(§2) Residual samples from the above study were washed in phosphate-buffered saline and hemolyzed by hypotonic lysis in deionized water for the oxygen equilibrium and Hb modification (Hb adduct formation) studies. […] The areas of new peaks, representing HbS adducts, were obtained, calculated as percentages of total Hb area, and reported as levels of modified Hb or Hb adduct. […] Degree of Hb O2 affinity shift (ΔP50) was expressed as percentage of control DMSO-treated samples.

Details of data set [5]: method as in PMID 33205981. Particulars: in vitro, whole blood; cited from earlier work.
Another data set deals with Hb. Put plainly: Hb oxygen equilibrium study (Hemox Analyzer, P50 shift). Particulars: 2 mM, SS blood. Type of data set: cell-based, human. As to the method: as §1, with “Aliquots were fixed with 2% glutaraldehyde solution in sodium cacodylate buffer, pH 7.4, without exposure to air, and then subjected to microscopic morphological analysis of bright field images (at 40× magnification) of single layer cells on an Olympus BX40 microscope fitted with an Infinity 2 camera and coupled with Image Capture cellSens software (Olympus, Tokyo, Japan).” left out
as §2

`COC(=O)c1cccc(COc2cccc(O)c2C=O)n1` [PP10, Methyl 6-((2-formyl-3-hydroxyphenoxy)methyl) picolinate]: in data set [1], the solubility at 72 h was 12 ± 2 µg/mL (≈ 41.8 µM). The “stability (hydrolysis to PP10-acid)” value in data set [2] (buffer pH 1.2, 37 °C overnight) is recorded as “most significant degradation”; in data set [2] (buffer pH 5.5, 37 °C overnight) it was “degrades into the acid form”; in data set [2] (buffer pH 7.4, 37 °C overnight), “degrades into the acid form”. Moreover, in data set [2] (straight methanol, 37 °C overnight), the stability entry was “stable”. Besides, in data set [3], the “parent PP10 compound in whole blood after dosing” value is given as “No parent PP10 compound (PP10) was observed in any of the analyses”. The inhibition at 2000 µM in data set [4] (Homo sapiens, Erythrocyte, 2 mM, SS blood, read-out: RBC sickling inhibition more than PP10-acid) turned out to be 36%. For the same compound, the “antisickling effect (RBC sickling inhibition)” value in data set [4] is “dose-dependent antisickling effect”. Besides, the Hb adduct formation entry at HbS is reported as “highest Hb adduct formation”. Moreover, in data set [5], the “parent PP10 hydrolyzed into the PP10-acid metabolite” value was “about 20%”.

`O=Cc1c(O)cccc1OCc1cccc(C(=O)[O-])n1.[Na+]` [PP10-NaSalt]: the “antisickling effect (RBC sickling inhibition)” value in data set [4] is on record as “almost no activity”. In addition, the Hb adduct formation result at HbS is listed as “significantly less adduct formation”.

For the compound `O=Cc1c(O)cccc1OCc1cccc(C(=O)O)n1` [PP10-acid], the “antisickling effect (RBC sickling inhibition)” value in data set [4] was “dose-dependent antisickling effect”. The “increase of Hb oxygen affinity compared with the ester (PP10)” value with Hb is given as “about 30%”.

For orientation: solubility means the concentration that dissolves in the medium under given conditions. Lower therefore signals a poorly soluble substance. In general, inhibition refers to the drop in the measured response relative to a control, in per cent.

Source of the values: publication PMC8401948, “Improving the Solubility and Oral Bioavailability of a Novel Aromatic Aldehyde Antisickling Agent (PP10) for the Treatment of Sickle Cell Disease” (Pharmaceutics, 2021).
